Like-named read-outs stand apart in the source and are kept apart here.
Key:
[1] = system: white mice; experiment: Acute oral toxicity (lethality) in mice; conditions: oral, mice
Excerpt: (§1) and of the combined preparation of 25 parts by weight
Doses in mg/kg Body Weight

[2] = cited from earlier work
[3] = Acute oral toxicity (lethality) in mice; conditions: mouse, in vivo, po
Excerpt: as §1
Doses in mg/kg Body Weight

| Structure (SMILES) | DL 95 [1] [mg/kg] | hypnotic or soporific effect (in words) ([2]; 1 mg) | side effects (in words) ([2]; 2 to 3 mg, in individual cases) | half-life (in words) ([2]; in vivo) | ratio between effect and tolerance (in words) ([2]; single dose of 1 mg) | side effects (in words) ([2]; somewhat higher doses, may occur in the next few days) | LD50 [3] [mg/kg] |
| --- | --- | --- | --- | --- | --- | --- | --- |
| CN(C)CCOC(c1ccccc1)c1ccccc1 [diphenhydramine, 2-(diphenyl-methoxy)-N,N-dimethyl ethanamine] | 645 | – | – | – | – | – | – |
| O=C1Nc2ccc(Cl)cc2C(c2ccccc2Cl)=NC1O (stereo not shown) [lorazepam, 7-chlor-5-(2-chlorphenyl)-1,3-dihydro-3-hydroxy-2H-1,4 benzodiazepin-2-on] | – | often insufficient | subjectively unpleasant side effects can occur | medium half-life | especially good ratio between effect and tolerance | relatively strong side effects, such as muscle relaxation, ataxia and sedative after-effects | 3180 |

From US4590191A, “Soporific containing lorazepam” (Medichemie AG, priority 1984, dated 1986)
